From the CheMixHub viscosity set
Where “and” joins values, the source holds several entries; their conditions need not be identical. Equal entries are not always repeated. ± gives the uncertainty stated by the source.

Assay: xn = mol fraction of the nth substance listed

Cc1ccc(C)cc1 + CO
viscosity [mPa·s], 101 kPa
Conditions | x1 = 0.0352 | x1 = 0.0758 | x1 = 0.1233 | x1 = 0.1795 | x1 = 0.247 | x1 = 0.3298 | x1 = 0.4336 | x1 = 0.5673 | x1 = 0.747
293.15 K | 0.6087 ± 0.016 | 0.6353 ± 0.017 | 0.6635 ± 0.017 | 0.6929 ± 0.018 | 0.7227 ± 0.019 | 0.7509 ± 0.02 | 0.7731 ± 0.021 | 0.7803 ± 0.021 | 0.7526 ± 0.02
298.15 K | 0.5596 ± 0.015 | 0.5732 ± 0.015 | 0.5877 ± 0.015 | 0.6031 ± 0.016 | 0.6191 ± 0.016 | 0.6348 ± 0.017 | 0.6483 ± 0.017 | 0.656 ± 0.017 | 0.6489 ± 0.017
308.15 K | 0.4893 ± 0.013 | 0.4993 ± 0.013 | 0.5103 ± 0.013 | 0.522 ± 0.014 | 0.5342 ± 0.014 | 0.5465 ± 0.014 | 0.558 ± 0.015 | 0.5669 ± 0.015 | 0.5649 ± 0.015
318.15 K | 0.4296 ± 0.011 | 0.4369 ± 0.011 | 0.4449 ± 0.012 | 0.4536 ± 0.012 | 0.4628 ± 0.012 | 0.4725 ± 0.012 | 0.4823 ± 0.013 | 0.4899 ± 0.013 | 0.4933 ± 0.013

C=C(C)C(=O)OCCCCCCC + C1CCCCC1
viscosity [mPa·s], 101 kPa
Conditions | x1 = 0.002 | x1 = 0.005 | x1 = 0.01 | x1 = 0.02
303 K | 0.8392 ± 0.0085 | 0.8401 ± 0.0085 | 0.8252 ± 0.0082 | 0.8456 ± 0.0087
313 K | 0.6991 ± 0.0056 | 0.7083 ± 0.0057 | 0.7012 ± 0.0055 | 0.7219 ± 0.006
323 K | 0.6114 ± 0.004 | 0.6127 ± 0.004 | 0.6159 ± 0.004 | 0.6244 ± 0.0043

[Cl-].[Cl-].[Cl-].[Cl-].[Ge+4] + CSC
293.15 K, 101 kPa
Conditions | viscosity [mPa·s]
x2 = 0.203 | 0.526 ± 0.013
x2 = 0.3575 | 0.483 ± 0.012
x2 = 0.4983 | 0.433 ± 0.011
x2 = 0.6857 | 0.379 ± 0.01
x2 = 0.8554 | 0.328 ± 0.008

C[N+](C)(C)CCO.[Cl-] + NCCO
101 kPa
Conditions | viscosity [mPa·s]
293.15 K, x1 = 0.091 | 40.5 ± 1.7
293.15 K, x1 = 0.111 | 48.81 ± 2
293.15 K, x1 = 0.143 | 51.72 ± 2.1
298.15 K, x1 = 0.125 | 38.64 ± 0.44
303.15 K, x1 = 0.125 | 30.08 ± 0.34
308.15 K, x1 = 0.125 | 23.81 ± 0.27
313.15 K, x1 = 0.091 | 16.33 ± 0.68
313.15 K, x1 = 0.111 | 20.81 ± 0.87
313.15 K, x1 = 0.125 | 19.3 ± 0.2
313.15 K, x1 = 0.143 | 21.41 ± 0.89
318.15 K, x1 = 0.125 | 15.79 ± 0.18
323.15 K, x1 = 0.125 | 12.88 ± 0.15

CC(C)CCCC(C)CCCC(C)CCCC(C)C (configuration not stated) + Cc1ccccc1
viscosity [mPa·s], 100 kPa
Conditions | 298.15 K | 313.15 K
x2 = 0.4932 | 2.255 ± 0.21 | 1.658 ± 0.16
x2 = 0.7449 | 1.263 ± 0.24 | 0.974 ± 0.095

CCCCCCCCCCCCO + CCCCCCCCCCO
viscosity [mPa·s], 101.8 kPa
Conditions | x2 = 0.1151 | x2 = 0.3347 | x2 = 0.5407 | x2 = 0.7346 | x2 = 0.9162
298.15 K | 16.35 ± 0.42 | 15.13 ± 0.41 | 14.02 ± 0.41 | 13.03 ± 0.4 | 12.15 ± 0.39
308.15 K | 11.08 ± 0.41 | 10.31 ± 0.36 | 9.627 ± 0.36 | 8.957 ± 0.36 | 8.384 ± 0.34
318.15 K | 7.752 ± 0.36 | 7.245 ± 0.34 | 6.775 ± 0.34 | 6.357 ± 0.34 | 5.973 ± 0.33

C=C(C)C(=O)OCCCCCCC + c1ccccc1
viscosity [mPa·s], 101 kPa
Conditions | x1 = 0.002 | x1 = 0.004 | x1 = 0.01 | x1 = 0.02
303 K | 0.5525 ± 0.0033 | 0.5621 ± 0.0034 | 0.5849 ± 0.0037 | 0.5828 ± 0.0036
313 K | 0.4874 ± 0.0033 | 0.4915 ± 0.0033 | 0.5123 ± 0.0029 | 0.5115 ± 0.0029
323 K | 0.4321 ± 0.0029 | 0.4362 ± 0.0029 | 0.4518 ± 0.003 | 0.4535 ± 0.003

Cc1ccc(C)cc1 + CCCO
viscosity [mPa·s], 100 kPa
Conditions | 298.15 K | 308.15 K
x2 = 0.0643 | 0.6146 ± 0.074 | 0.5489 ± 0.066
x2 = 0.1254 | 0.631 ± 0.076 | 0.5619 ± 0.068
x2 = 0.2254 | 0.6713 ± 0.081 | 0.5956 ± 0.072
x2 = 0.3547 | 0.7426 ± 0.089 | 0.6389 ± 0.077
x2 = 0.4703 | 0.8348 ± 0.1 | 0.7071 ± 0.085
x2 = 0.5743 | 0.9545 ± 0.11 | 0.7925 ± 0.095
x2 = 0.6683 | 1.058 ± 0.13 | 0.9054 ± 0.11
x2 = 0.7538 | 1.253 ± 0.15 | 1.028 ± 0.12
x2 = 0.8318 | 1.449 ± 0.17 | 1.198 ± 0.14
x2 = 0.9033 | 1.662 ± 0.2 | 1.337 ± 0.16
x2 = 0.9691 | 1.814 ± 0.22 | 1.457 ± 0.18

O=Cc1ccccc1 + CS(C)=O
viscosity [mPa·s], 101.33 kPa
Conditions | x2 = 0.1 | x2 = 0.2 | x2 = 0.3 | x2 = 0.4 | x2 = 0.5 | x2 = 0.6 | x2 = 0.7 | x2 = 0.8 | x2 = 0.9
298.15 K | 1.443 ± 0.014 | 1.51 ± 0.015 | 1.562 ± 0.015 | 1.62 ± 0.016 | 1.679 ± 0.016 | 1.739 ± 0.017 | 1.801 ± 0.017 | 1.864 ± 0.018 | 1.938 ± 0.019
308.15 K | 1.22 ± 0.012 | 1.266 ± 0.012 | 1.314 ± 0.013 | 1.362 ± 0.013 | 1.411 ± 0.014 | 1.461 ± 0.014 | 1.51 ± 0.015 | 1.56 ± 0.015 | 1.609 ± 0.016
318.15 K | 1.066 ± 0.01 | 1.101 ± 0.011 | 1.135 ± 0.011 | 1.17 ± 0.012 | 1.207 ± 0.012 | 1.243 ± 0.012 | 1.28 ± 0.013 | 1.317 ± 0.013 | 1.354 ± 0.013

CCCCCCCCCCCCO + CCCCCCO
viscosity [mPa·s], 101.8 kPa
Conditions | x2 = 0.1701 | x2 = 0.4377 | x2 = 0.6449 | x2 = 0.8097 | x2 = 0.9429
298.15 K | 14.45 ± 0.6 | 10.7 ± 0.57 | 8.172 ± 0.52 | 6.334 ± 0.49 | 5.053 ± 0.46
308.15 K | 9.897 ± 0.51 | 7.517 ± 0.44 | 5.841 ± 0.42 | 4.64 ± 0.4 | 3.754 ± 0.38
318.15 K | 6.978 ± 0.41 | 5.411 ± 0.38 | 4.279 ± 0.37 | 3.455 ± 0.36 | 2.829 ± 0.35

O=Cc1ccccc1 + Cc1ccccc1
293.15 K, 100 kPa
Conditions | viscosity [mPa·s]
x1 = 0.1053 | 0.652 ± 0.017
x1 = 0.2063 | 0.721 ± 0.019
x1 = 0.2998 | 0.768 ± 0.02
x1 = 0.4022 | 0.844 ± 0.022
x1 = 0.4995 | 0.92 ± 0.023
x1 = 0.6003 | 1.017 ± 0.025
x1 = 0.6939 | 1.108 ± 0.027
x1 = 0.8082 | 1.256 ± 0.031
x1 = 0.9002 | 1.367 ± 0.033

Cc1ccc(C)cc1 + CCCCCCO
viscosity, 101 kPa
Conditions | x2 = 0.0999 | x2 = 0.1999 | x2 = 0.2999 | x2 = 0.4001 | x2 = 0.4997 | x2 = 0.6 | x2 = 0.7 | x2 = 0.8 | x2 = 0.8999
303.15 K | 0.616 ± 0.006 mPa·s and 0.616 ± 0.012 mPa·s | 0.693 ± 0.007 mPa·s and 0.693 ± 0.013 mPa·s | 0.799 ± 0.008 mPa·s and 0.799 ± 0.014 mPa·s | 0.946 ± 0.01 mPa·s and 0.946 ± 0.015 mPa·s | 1.148 ± 0.012 mPa·s and 1.148 ± 0.017 mPa·s | 1.42 ± 0.015 mPa·s and 1.42 ± 0.019 mPa·s | 1.801 ± 0.019 mPa·s and 1.801 ± 0.023 mPa·s | 2.323 ± 0.025 mPa·s and 2.323 ± 0.029 mPa·s | 3.004 ± 0.032 mPa·s and 3.004 ± 0.036 mPa·s
313.15 K | 0.544 ± 0.006 mPa·s and 0.544 ± 0.012 mPa·s | 0.605 ± 0.006 mPa·s and 0.605 ± 0.012 mPa·s | 0.689 ± 0.007 mPa·s and 0.689 ± 0.013 mPa·s | 0.802 ± 0.008 mPa·s and 0.802 ± 0.014 mPa·s | 0.956 ± 0.01 mPa·s and 0.956 ± 0.015 mPa·s | 1.156 ± 0.012 mPa·s and 1.156 ± 0.017 mPa·s | 1.433 ± 0.015 mPa·s and 1.433 ± 0.019 mPa·s | 1.806 ± 0.018 mPa·s and 1.806 ± 0.023 mPa·s | 2.295 ± 0.024 mPa·s and 2.295 ± 0.028 mPa·s
323.15 K | 0.485 ± 0.005 mPa·s and 0.485 ± 0.012 mPa·s | 0.533 ± 0.006 mPa·s and 0.533 ± 0.012 mPa·s | 0.6 ± 0.006 mPa·s and 0.6 ± 0.012 mPa·s | 0.689 ± 0.007 mPa·s and 0.689 ± 0.013 mPa·s | 0.807 ± 0.008 mPa·s and 0.807 ± 0.014 mPa·s | 0.958 ± 0.01 mPa·s and 0.958 ± 0.015 mPa·s | 1.161 ± 0.012 mPa·s and 1.161 ± 0.017 mPa·s | 1.433 ± 0.014 mPa·s and 1.433 ± 0.019 mPa·s | 1.788 ± 0.018 mPa·s and 1.788 ± 0.023 mPa·s

C[N+](C)(C)CCO.[Cl-] + O
Conditions | viscosity [mPa·s]
298.15 K, 101.33 kPa, x1 = 0.002 | 0.9099 ± 0.019

CCCCCCCCCCCCO + C=CC(=O)OCCCC
viscosity [mPa·s], 101.3 kPa
Conditions | x2 = 0.075 | x2 = 0.2149 | x2 = 0.2782 | x2 = 0.3968 | x2 = 0.5042 | x2 = 0.7015 | x2 = 0.7849 | x2 = 0.8614 | x2 = 0.9327 | x2 = 0.9651
298.15 K | 12.42 ± 0.9 | 7.842 ± 0.61 | 6.982 ± 0.56 | 4.373 ± 0.38 | 3.244 ± 0.29 | 1.769 ± 0.17 | 1.376 ± 0.13 | 1.197 ± 0.12 | 0.983 ± 0.097 | 0.858 ± 0.087
308.15 K | 8.748 ± 0.67 | 5.789 ± 0.48 | 4.807 ± 0.42 | 3.38 ± 0.3 | 2.459 ± 0.22 | 1.409 ± 0.13 | 1.135 ± 0.11 | 1.004 ± 0.099 | 0.86 ± 0.087 | 0.732 ± 0.076
